Test results published in patent publication EP1626095A1, “Fluorescence-based kinetic determination of transglutaminase activity” (N-Zyme BioTec GmbH, priority 2004, dated 2006).
Where a SMILES comes first, the peptide text is derived from it. [ ]: non-standard residue; d: D form. The star is where a group is joined. X1 = O=[N+]([O-])c1ccc(NCCCCCN*)c([N+](=O)[O-])c1; 2Abz = Nc1ccccc1C(=O)O

What was measured:
[1] = target: T1, gereinigte rekombinante humane Transglutaminase 2 (Homo sapiens, UniProt P21980); assay: Selectivity test: fluorescence-based kinetic transglutaminase activity measurement (release of quencher from substrate peptide), Ansatz 2; assay type: biochemical; details: substrate peptide 50 µM; rhHis6TG2 0,25 µM; 6 % DMSO; Exc.: 310 nm Em.: 427 nm, 20 min
T1 construct: His6
T1 sequence (P21980 1-687): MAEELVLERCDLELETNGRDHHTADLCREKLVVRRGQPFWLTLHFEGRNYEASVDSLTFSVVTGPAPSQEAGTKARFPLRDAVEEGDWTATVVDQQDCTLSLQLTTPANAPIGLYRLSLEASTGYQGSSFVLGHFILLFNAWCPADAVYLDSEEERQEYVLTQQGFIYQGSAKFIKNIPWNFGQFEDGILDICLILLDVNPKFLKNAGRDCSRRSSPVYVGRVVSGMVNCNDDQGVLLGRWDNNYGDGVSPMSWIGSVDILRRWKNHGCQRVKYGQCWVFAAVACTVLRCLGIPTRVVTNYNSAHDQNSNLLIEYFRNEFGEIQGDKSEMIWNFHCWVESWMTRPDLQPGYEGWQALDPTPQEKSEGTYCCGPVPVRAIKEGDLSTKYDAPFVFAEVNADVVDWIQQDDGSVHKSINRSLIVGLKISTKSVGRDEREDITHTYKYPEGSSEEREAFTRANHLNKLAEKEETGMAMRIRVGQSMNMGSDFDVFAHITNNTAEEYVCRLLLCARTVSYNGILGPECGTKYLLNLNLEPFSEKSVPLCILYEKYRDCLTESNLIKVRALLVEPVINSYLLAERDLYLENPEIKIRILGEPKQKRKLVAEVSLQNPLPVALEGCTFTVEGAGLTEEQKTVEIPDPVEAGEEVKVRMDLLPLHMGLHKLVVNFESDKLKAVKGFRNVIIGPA
Description: (§1) Selektivität der Messungen verschiedener Transglutaminasen
2. Ansatz: Abz-Asn-Glu(CAD-DNP)-Glu-Gln-Val-Ser-Pro-Leu-Thr-Leu-Leu-Lys (2) Transglutaminase: gereinigte rekombinante humane Transglutaminase 2

[2] = target: T2, Faktor XIII (Homo sapiens, UniProt P00488); assay: Selectivity test: fluorescence-based kinetic transglutaminase activity measurement (release of quencher from substrate peptide), Ansatz 1; assay type: biochemical; details: substrate peptide 50 µM; Faktor XIII: 100 µl Citratplasma; 6 % DMSO; Exc.: 310 nm Em.: 427 nm, 20 min
T2 construct: 100 µl Citratplasma; from tissue; host or cells: citrate plasma
T2 sequence (P00488 39-732 limits assumed): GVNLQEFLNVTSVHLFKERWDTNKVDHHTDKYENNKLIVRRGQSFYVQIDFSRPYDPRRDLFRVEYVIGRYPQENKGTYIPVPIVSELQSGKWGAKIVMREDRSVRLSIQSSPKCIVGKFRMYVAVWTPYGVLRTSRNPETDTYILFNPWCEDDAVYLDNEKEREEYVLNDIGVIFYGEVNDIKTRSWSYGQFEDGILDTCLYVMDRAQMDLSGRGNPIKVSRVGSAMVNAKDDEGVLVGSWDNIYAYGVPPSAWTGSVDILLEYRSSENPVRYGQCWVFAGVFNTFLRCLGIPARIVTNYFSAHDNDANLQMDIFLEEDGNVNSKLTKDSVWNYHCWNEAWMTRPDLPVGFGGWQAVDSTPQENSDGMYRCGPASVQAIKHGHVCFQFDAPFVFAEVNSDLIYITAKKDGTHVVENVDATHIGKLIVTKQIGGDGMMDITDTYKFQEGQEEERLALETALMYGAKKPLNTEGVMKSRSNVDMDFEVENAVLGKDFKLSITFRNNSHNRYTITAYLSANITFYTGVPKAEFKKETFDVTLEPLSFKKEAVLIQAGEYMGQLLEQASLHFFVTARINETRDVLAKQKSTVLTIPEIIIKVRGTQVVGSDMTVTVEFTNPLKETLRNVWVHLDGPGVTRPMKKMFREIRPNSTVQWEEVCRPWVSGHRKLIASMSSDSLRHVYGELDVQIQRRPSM
Description: as §1
1. Ansatz: Substratpeptid: Abz-Ala-Pro-Glu(CAD-DNP)-Gln-Glu-Ala (3), Transglutaminase: Faktor XIII

Ergebnis (Anstieg der Fluoreszenz) [1]	Compound	Ergebnis (Anstieg der Fluoreszenz) [2]
kein Anstieg der Fluoreszenz	2-Aminobenzoyl-L-asparaginyl-N^δ-[N-(2,4-dinitrophenyl)1-5-aminopentyl]-L-glutaminyl-L-glutamyl-L-glutaminyl-L-valinyl-L-serinyl-L-prolinyl-L-leucinyl-L-threoninyl-L-leucinyl-L-leucin-L-lysin [Verbindung 2]	–
–	C[C@H](NC(=O)[C@H](CCC(=O)O)NC(=O)[C@H](CCC(N)=O)NC(=O)[C@H](CCC(=O)NCCCCCNc1ccc([N+](=O)[O-])cc1[N+](=O)[O-])NC(=O)[C@@H]1CCCN1C(=O)[C@H](C)NC(=O)c1ccccc1N)C(=O)O [Verbindung 3] (H-[2Abz]APE(X1)QEA-OH)	Ergebnis: kein Anstieg der Fluoreszenz
